Measured values reported in patent publication US9302999B2, “Substituted triazoles as herbicides” (E. I. DU PONT DE NEMOURS AND COMPANY, priority 2012, dated 2016).

Key:
Assay type in all cases: in vivo
rice (Oryza sativa) = assay: Test B flooded paddy: rice; settings: Flood; 125 g ai/ha; applied to paddy water at 2-leaf stage; visually evaluated after 13 to 15 days
Method in brief: (§1)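 Flooded-pot test: compound dosed into 3 cm of standing water above soil when plants had two leaves. Visual control ratings (0–100) versus untreated plants after 13–15 d.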

[1] = tested on: crabgrass, large (large crabgrass, Digitaria sanguinalis); assay: Test A pre-/postemergence: crabgrass, large
Method in brief: (§2)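 Whole-plant greenhouse assay in loam/sand. Preemergence directed soil spray plus simultaneous postemergence spray (one- to two-leaf stage, 2–10 cm). Rated visually ~10 days later, 0 = no effect, 100 = complete control.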

[2] = tested on: barnyardgrass (Echinochloa crus-galli); assay: Test B flooded paddy: barnyardgrass; settings: Flood; 125 g ai/ha; applied to paddy water at 2-leaf stage; visually evaluated after 13 to 15 days
Method in brief: as §1

[3] = tested on: lambsquarters (Chenopodium album); assay: Test C pre-/postemergence: lambsquarters
Method in brief: (§3)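 Preemergence on seeds in loam/sand, postemergence on 2–18 cm (1–4-leaf) plants in peat-based medium; compounds in non-phytotoxic solvent with surfactant. After 13–15 days in greenhouse, visual rating versus controls, 0 (no effect) to 100 (complete control).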

[4] = tested on: blackgrass (Alopecurus myosuroides); assay: Test C pre-/postemergence: blackgrass
Method in brief: as §3

soybean (Glycine max) = assay: Test C pre-/postemergence: soybean
Method in brief: as §3

[5] = tested on: pigweed (Amaranthus retroflexus); assay: Test A pre-/postemergence: pigweed
Method in brief: as §2

[6] = tested on: ragweed (common ragweed, Ambrosia elation); assay: Test C pre-/postemergence: ragweed
Method in brief: as §3

[7] = tested on: barnyardgrass (Echinochloa crus-galli); assay: Test A pre-/postemergence: barnyardgrass
Method in brief: as §2

[8] = tested on: morningglory (Ipomoea spp.); assay: Test A pre-/postemergence: morningglory
Method in brief: as §2

[9] = Postemergence, 125 g ai/ha, 0 to 100 scale, 0 is no effect, 100 is complete control
[10] = Postemergence, 500 g ai/ha, 0 to 100 scale, 0 is no effect, 100 is complete control
[11] = Preemergence, 125 g ai/ha, 0 to 100 scale where 0 is no effect and 100 is complete control
[12] = Preemergence, 500 g ai/ha, 0 to 100 scale (0 no effect, 100 complete control)
[13] = Postemergence, 31 g ai/ha, scale 0 to 100 (0 no effect, 100 complete control)
[14] = Postemergence, 62 g ai/ha, scale 0 to 100 (0 no effect, 100 complete control)
[15] = Postemergence, 125 g ai/ha, scale 0 to 100, 0 no effect, 100 complete control
[16] = Postemergence, 250 g ai/ha, scale 0 to 100 (0 no effect, 100 complete control)
[17] = Preemergence, 31 g ai/ha, scale 0 (no effect) to 100 (complete control)
[18] = Preemergence, 62 g ai/ha, scale of 0 to 100, 0 is no effect, 100 is complete control
[19] = Preemergence, 125 g ai/ha, scale 0 to 100, 0 no effect, 100 complete control
[20] = Preemergence, 250 g ai/ha, scale 0 to 100, 0 no effect, 100 complete control
[21] = Postemergence, 250 g ai/ha, scale 0 to 100

CCc1nn(-c2ccc(C(F)(F)F)c(F)c2)nc1Oc1ccnc(C(F)(F)F)c1 [Compound 183]
Plant response rating, Rice (0 to 100 scale, 0 is no effect, 100 is complete control) (rice (Oryza sativa)): 45
Plant response rating, Crabgrass, Large [1, 9]: 90
Crabgrass, Large plant response rating [1, 10]: 90
Plant response rating, Crabgrass, Large [1, 11]: 100
Plant response rating, Crabgrass, Large [1, 12]: 100
Plant response rating, Barnyardgrass (0 to 100 scale, 0 is no effect, 100 is complete control) [2]: 30
Plant response rating, Lambsquarters [3, 13]: 85
Plant response rating, Lambsquarters [3, 14]: 95
Plant response rating, Lambsquarters [3, 15]: 95
Plant response rating, Lambsquarters [3, 16]: 98
Plant response rating, Lambsquarters [3, 17]: 80
Plant response rating, Lambsquarters [3, 18]: 100
Plant response rating, Lambsquarters [3, 19]: 100
Plant response rating, Lambsquarters [3, 20]: 100
Plant response rating, Blackgrass [4, 13]: 10
Plant response rating, Blackgrass [4, 14]: 20
Plant response rating, Blackgrass [4, 15]: 60
Plant response rating, Blackgrass [4, 21]: 60
Plant response rating, Blackgrass [4, 17]: 80
Plant response rating, Blackgrass [4, 18]: 95
Plant response rating, Blackgrass [4, 19]: 95
Plant response rating, Blackgrass [4, 20]: 100
Plant response rating, Soybean (soybean (Glycine max); [13]): 35
Plant response rating, Soybean (soybean (Glycine max); [14]): 55
Plant response rating, Soybean (soybean (Glycine max); [15]): 55
Plant response rating, Soybean (soybean (Glycine max); [16]): 90
Plant response rating, Soybean (soybean (Glycine max); [17]): 5
Plant response rating, Soybean (soybean (Glycine max); [18]): 5
Plant response rating, Soybean (soybean (Glycine max); [19]): 10
Plant response rating, Soybean (soybean (Glycine max); [20]): 30
Plant response rating, Pigweed [5, 9]: 100
Pigweed plant response rating [5, 10]: 100
Plant response rating, Pigweed [5, 11]: 100
Plant response rating, Pigweed [5, 12]: 100
Plant response rating, Ragweed [6, 13]: 65
Plant response rating, Ragweed [6, 14]: 80
Plant response rating, Ragweed [6, 15]: 90
Plant response rating, Ragweed [6, 16]: 95
Plant response rating, Ragweed [6, 17]: 50
Plant response rating, Ragweed [6, 18]: 50
Plant response rating, Ragweed [6, 19]: 95
Plant response rating, Ragweed [6, 20]: 95
Plant response rating, Barnyardgrass [7, 9]: 80
Barnyardgrass plant response rating [7, 10]: 90
Plant response rating, Barnyardgrass [7, 11]: 90
Plant response rating, Barnyardgrass [7, 12]: 100
Plant response rating, Morningglory [8, 9]: 100
Morningglory plant response rating [8, 10]: 100
Plant response rating, Morningglory [8, 11]: 70
Plant response rating, Morningglory [8, 12]: 90

CCOc1nn(-c2ccc(Cl)cc2)nc1Cc1ccnc(C(F)(F)F)c1 [Compound 188]
Plant response rating, Rice (0 to 100 scale, 0 is no effect, 100 is complete control) (rice (Oryza sativa)): 50
Plant response rating, Crabgrass, Large [1, 9]: 90
Crabgrass, Large plant response rating [1, 10]: 90
Plant response rating, Crabgrass, Large [1, 11]: 100
Plant response rating, Crabgrass, Large [1, 12]: 100
Plant response rating, Barnyardgrass (0 to 100 scale, 0 is no effect, 100 is complete control) [2]: 75
Plant response rating, Lambsquarters [3, 13]: 90
Plant response rating, Lambsquarters [3, 14]: 95
Plant response rating, Lambsquarters [3, 15]: 98
Plant response rating, Lambsquarters [3, 16]: 98
Plant response rating, Lambsquarters [3, 17]: 90
Plant response rating, Lambsquarters [3, 18]: 90
Plant response rating, Lambsquarters [3, 19]: 98
Plant response rating, Lambsquarters [3, 20]: 100
Plant response rating, Blackgrass [4, 13]: 55
Plant response rating, Blackgrass [4, 14]: 55
Plant response rating, Blackgrass [4, 15]: 85
Plant response rating, Blackgrass [4, 21]: 90
Plant response rating, Blackgrass [4, 17]: 80
Plant response rating, Blackgrass [4, 18]: 100
Plant response rating, Blackgrass [4, 19]: 100
Plant response rating, Blackgrass [4, 20]: 100
Plant response rating, Soybean (soybean (Glycine max); [13]): 40
Plant response rating, Soybean (soybean (Glycine max); [14]): 50
Plant response rating, Soybean (soybean (Glycine max); [15]): 50
Plant response rating, Soybean (soybean (Glycine max); [16]): 55
Plant response rating, Soybean (soybean (Glycine max); [17]): 5
Plant response rating, Soybean (soybean (Glycine max); [18]): 20
Plant response rating, Soybean (soybean (Glycine max); [20]): 65
Plant response rating, Pigweed [5, 9]: 100
Pigweed plant response rating [5, 10]: 100
Plant response rating, Pigweed [5, 11]: 100
Plant response rating, Pigweed [5, 12]: 100
Plant response rating, Ragweed [6, 13]: 65
Plant response rating, Ragweed [6, 14]: 75
Plant response rating, Ragweed [6, 15]: 85
Plant response rating, Ragweed [6, 16]: 85
Plant response rating, Barnyardgrass [7, 9]: 90
Barnyardgrass plant response rating [7, 10]: 90
Plant response rating, Barnyardgrass [7, 11]: 90
Plant response rating, Barnyardgrass [7, 12]: 100
Plant response rating, Morningglory [8, 9]: 90
Morningglory plant response rating [8, 10]: 100
Plant response rating, Morningglory [8, 11]: 20
Plant response rating, Morningglory [8, 12]: 90
